Entries after “also recorded” stand apart in the source; their conditions may differ. Read-outs that look alike come from different tables or passages of the source. Where a SMILES comes first, the peptide text is derived from it. The star is where a group is joined. Orn(α-tetramethylguanidino) = CN(C)C(=N[C@@H](CCCN)C(=O)*)N(C)C
What was measured:
E. coli ATCC 25922 [1] = assay: Systemic septicemia infection mouse model (lethal intraperitoneal E. coli infection); format: in vivo, NMRI mice
Protocol: (§1) The acute toxicity of Api137 was studied by administering doses of 20, 40, 80, and 120 mg/kg intraperitoneally (i.p.) four times daily (0, 3, 7, and 24 h) into female NMRI mice (24–32 g, ~7 weeks old). For in vivo efficacy, female NMRI mice (high dose experiment: 24–27.1 g, 6 weeks; low dose experiment: 26.8–30.3 g, 7 weeks) were infected intraperitoneal with E. coli ATCC 25922, as described before (Czihal et al., [2012]; Knappe et al., [2012]). Briefly, each mouse was infected with 9 × 10^5 bacteria in the presence of 2.5% (w/v) mucin (0.3 mL in total). Mucin restricts acute macrophage activation in the intraperitoneal space and promotes establishment of a reproducible infection (Frimodt-Møller et al., [1999]). Mice were observed three times daily for their health status for a total of 5 days post-infection and weighed 1 day before and 1 and 5 days after infection. In accordance with the guidelines of the Animal Care and Usage Committee of the Landesdirektion Leipzig, moribund mice were euthanized.
Apidaecin Api137 (high dose experiment: 2.5 and 1.25 mg/kg body weight; low dose experiment: 0.6 and 0.3 mg/kg body weight) was administered intraperitoneal (0.3 mL) in seven mice per group three times post-infection (1, 4, and 8 h) as antibacterial therapy. Each experiment included seven mice receiving ciprofloxacin (40 mg/kg body weight) and four mice receiving only the vehicle (5% glucose in water, w/v) as positive and negative controls, respectively.

[2] = Acute toxicity, intraperitoneal administration; format: in vivo, NMRI mice
Protocol: as §1

[3] = Peptide recovery in spiked blood and organ homogenates; format: in vitro ADME, NMRI mice; settings: LC-MS MRM, mean n = 3
Protocol: plasma samples and organ homogenates relative to equally concentrated peptide solutions in pure w ater. Concentrations of samples below the LOQ but still detectable were set to the value of the LOD, whereas signals with peak hei ghts below the LOD were set to 0 µg/m L.
Method M3: Recovery rates in plasma and organ homogenates
Li -heparin blood samples obtained from untreated NMRI mice were spiked with Api88 or Api137 (final concentrations: 2.5 or 10 µ g/ m L), incubated (10 min, RT), and centrifuged (2,000x g, 3 min, RT) to obtain plasma. […]
500 µ L, 0.2 or 2 µg/m L, l iver: 500 µ L, 1 or 2.5 µ g/m L, kidne ys: 500 µ L, 20 or 60 µg/m L). […] Recoveries were calculated b y assumin g a total blood (plasma) volume of 75 (25) m L per k g mouse weight 3 and that the measured organ weight (in g) corresponds to the organ volume (in m L). […]
Apidaecin peptides were selectively and sensitively quantified based on the methods established for oncocins Onc72 and Onc112 (Sch midt R. et al J AC 2016). […]
Table S12. Recover y rates of Api88 and Api137 determined in plasma and organ homogenates (n = 3) collected from untreated NMRI mice. […]
500 µ L, 1 or 2.5 µg/m L, kidneys: 500 µ L, 20 o r 60 µg/m L) were added p rior to homogenization and centrifugation. […] The total peptide amount in mice was calculated from the recover y rates shown […]

E. coli ATCC 25922 [4] = settings: ref Czihal et al., 2012, cited from earlier work
Source text: Antimicrobial peptides (AMPs) are considered as promising alternatives to common antibiotics that threateningly lose their therapeutic potentials against multidrug-resistant pathogens (Fox, [2013]; Wang et al., [2015]). In contrast to approved therapeutic peptide hormones, antimicrobial peptides have to be administered at much higher doses, which may amplify general drawbacks of peptide therapeutics. […] Api137 appeared more efficient in this septicemia model due to the better scores obtained at ... || Apidaecin analogs Api88 and Api137 are similarly active against Gram-negative bacteria with a tendency of higher activity of Api88 against K. pneumoniae (Czihal et al., [2012]; Berthold et al., [2013]). However, Api88 carries a C-terminal amide that is responsible for its very fast proteolytic cleavage in serum, the supernatant obtained after complete coagulation and centrifugation of blood. The in vitro serum stability assay, which is an important in vitro criterion to select therapeutic peptides for systemic applications, yielded very short half-life times of 5 min for Api88, which indicate ...

Row | SMILES | Survival (E. coli ATCC 25922 [1]; 0.3 mg/kg i.p. three times post-infection (1, 4, 8 h), n = 7) | Survival (E. coli ATCC 25922 [1]; 0.6 mg/kg (and higher) i.p. three times post-infection (1, 4, 8 h), n = 7, 5 days observation) | Dose rescuing all mice (E. coli ATCC 25922 [1]; i.p. three times post-infection) | ED50 (E. coli ATCC 25922 [1]; i.p. three times post-infection (1, 4, 8 h), approximate) | Adverse side effects ([2]; 120 mg/kg per injection i.p. four times (0, 3, 7, 24 h)) | Survival ([2]; 120 mg/kg per injection i.p. four times, observation period 5 days) | Adverse side effects ([2]; 20, 40 and 80 mg/kg per injection i.p. four times (0, 3, 7, 24 h), seven animals per dose group) | Recovery rate, Kidney, low concentration ([3]; peptide 20 µg/mL in 500 µL PBS with protease inhibitor added prior to homogenization) | Recovery rate, Kidney, high concentration ([3]; peptide 60 µg/mL in 500 µL PBS with protease inhibitor added prior to homogenization) | Survival (E. coli ATCC 25922 [4]; 2.5 and 1.25 mg/kg i.p.) | Dose rescuing all mice (E. coli ATCC 25922 [4]; same infection model)
1 | CC[C@H](C)[C@H](NC(=O)[C@H](Cc1ccc(O)cc1)NC(=O)[C@@H](NC(=O)[C@@H]1CCCN1C(=O)[C@H](CCCNC(=N)N)NC(=O)[C@H](CC(N)=O)NC(=O)[C@H](CC(N)=O)NC(=O)[C@H](CCCN)N=C(N(C)C)N(C)C)C(C)C)C(=O)N1CCC[C@H]1C(=O)N[C@@H](CCCNC(=N)N)C(=O)N1CCC[C@H]1C(=O)N[C@@H](CCCNC(=N)N)C(=O)N1CCC[C@H]1C(=O)N1CCC[C@H]1C(=O)N[C@@H](Cc1c[nH]cn1)C(=O)N1CCC[C@H]1C(=O)N[C@@H](CCCNC(=N)N)C(=O)N[C@@H](CC(C)C)C(=O)O [Api137] ({Orn(α-tetramethylguanidino)}-NNRPVYIPRPRPPHPRL-OH) | four out of seven mice | rescued all NMRI mice; also recorded: rescuing all animals | 0.6 mg/kg | ~0.3 mg/kg | signs of discomfort in some animals and decreased mobility for up to 20 min after administration | all mice survived | none of the seven animals per dose group showed any signs of adverse side effects | 3.5 ± 0.4% | 2.7 ± 0.7% | – | –
2 | CC[C@H](C)[C@H](NC(=O)[C@H](Cc1ccc(O)cc1)NC(=O)[C@@H](NC(=O)[C@@H]1CCCN1C(=O)[C@H](CCCNC(=N)N)NC(=O)[C@H](CC(N)=O)NC(=O)[C@H](CC(N)=O)NC(=O)[C@H](CCCN)N=C(N(C)C)N(C)C)C(C)C)C(=O)N1CCC[C@H]1C(=O)N[C@@H](CCCNC(=N)N)C(=O)N1CCC[C@H]1C(=O)N[C@@H](CCCNC(=N)N)C(=O)N1CCC[C@H]1C(=O)N1CCC[C@H]1C(=O)N[C@@H](Cc1c[nH]cn1)C(=O)N1CCC[C@H]1C(=O)N[C@@H](CCCNC(=N)N)C(=O)N[C@@H](CC(C)C)C(N)=O [Api88] ({Orn(α-tetramethylguanidino)}-NNRPVYIPRPRPPHPRL-NH2) | – | – | – | – | – | – | – | – | – | rescued all NMRI mice | 1.25 mg/kg

Reference: PMC5357639 (Frontiers in Chemistry, 2017)
